What is called MIC is the least concentration at which growth counts as inhibited.

17 molecules from US8236840B2, “Thiopene containing analogues of fluconazole as antifungal agents and process for their preparation” (Council of Scientific & Industrial Research, priority 2008, dated 2012) can be followed below.

Format in all cases: cell-based
In assay [1] the test system is Candida albicans ATCC 24433. The assay is described as follows: Antifungal MIC by broth dilution (CLSI M27-A2), RPMI 1640 with MOPS. Conditions: broth macro-dilution, end point after 48 hours, MIC = 80% inhibition vs growth control (Amphotericin B: complete inhibition); for MIC: Candida albicans, ATCC24433, read-out: MIC C. albicans ATCC 24433. How it is done:
(§1) The compounds of Formula 1 were tested for antifungal activity against Candida albicans, Aspergillus niger and Fusarium proliferatum. In vitro evaluation of antifungal activity was performed by determining the minimum inhibitory concentration (MIC) following standard methods (CLSI: Reference method for broth dilution antifungal susceptibility testing of yeasts; Approved standard, second edition M27-A2, 2002; CLSI: Reference method for broth dilution antifungal susceptibility testing of filamentous fungi; Approved standard M38-A, 2002). Anti-fungal susceptibility testing of these compounds of Formula 1 was done by broth dilution method using RPMI 1640 medium with MOPS buffer. Known anti-fungal agents like Fluconazole and Amphotericin-B were used as standards. End points were determined after 48 hours visually and by using spectrophotometer wherever necessary.
In general terms: Broth dilution looks for growth in wells or tubes with falling amounts of substance.

In assay [2] the test system is Aspergillus niger ATCC 16404. As to the kind of experiment: Antifungal MIC by broth dilution (CLSI M38-A), RPMI 1640 with MOPS. Conditions: broth macro-dilution, end point after 48 hours, MIC = 80% inhibition vs growth control (Amphotericin B: complete inhibition); for MIC: Aspergillus niger, ATCC16404. The protocol: as §1
For assay [3], the system named is Fusarium proliferatum ATCC 10052. Described as above. To be noted: broth macro-dilution, end point after 48 hours, MIC = 80% inhibition vs growth control (Amphotericin B: complete inhibition); for MIC: Fusarium proliferatum, ATCC10052, read-out: MIC F. proliferatum ATCC 10052. The protocol:
as §1

Each structure is given as a SMILES string. ≈ marks a conversion by molar mass, not a printed value.

Take `CCCCCCc1sc(NCC(O)(Cn2cncn2)c2ccc(F)cc2F)c(C(=O)OCC)c1C` (stereo not drawn) [Compound 1j, Ethyl 2-[2-(2,4-difluorophenyl)-2-hydroxy-3-[1,2,4]triazol-1-yl-propylamino]-5-hexyl-4-methyl-thiophene-3-carboxylate]: the MIC in assay [1], in assay [2] and in assay [3] was greater than 2 µg/mL in each case.
`CCCc1cc(C(=O)OCC)c(NCC(O)(Cn2cncn2)c2ccc(F)cc2F)s1` (stereo not drawn) [Compound 1c, Ethyl 2-[2-(2,4-difluorophenyl)-2-hydroxy-3-[1,2,4]triazol-1-yl-propylamino]-5-propyl-thiophene-3-carboxylate]: the MIC in assay [1] was 2 µg/mL (≈ 4.44 µM); in assay [2], greater than 16 µg/mL; in assay [3] it was greater than 16 µg/mL.
As for `CCOC(=O)c1c(NCC(O)(Cn2cncn2)c2ccc(F)cc2F)sc2c1CCCCC2` (stereo not drawn) [Compound 1i, Ethyl 2-[2-(2,4-difluorophenyl)-2-hydroxy-3-[1,2,4]triazol-1-yl-propylamino]-5,6,7,8-tetrahydro-4H-cyclohepta[b]thiophene-3-carboxylate], the MIC in assay [1] was 8 µg/mL (≈ 16.8 µM); in assay [2], greater than 8 µg/mL; in assay [3], greater than 8 µg/mL.
For the molecule `CCCCCCCCCCc1cc(C(=O)OCC)c(NCC(O)(Cn2cncn2)c2ccc(F)cc2F)s1` (stereo not drawn) [Compound 1e, Ethyl 5-n-decyl-2-[2-(2,4-difluorophenyl)-2-hydroxy-3-[1,2,4]triazol-1-yl-propylamino]-thiophene-3-carboxylate], the MIC in assay [1], in assay [2] and in assay [3] was greater than 4 µg/mL in each case.
On to `CCCCCCCc1cc(C(=O)OCC)c(NCC(O)(Cn2cncn2)c2ccc(F)cc2F)s1` (stereo not drawn) [Compound 1d, Ethyl 2-[2-(2,4-difluorophenyl)-2-hydroxy-3[1,2,4]triazol-1-yl-propylamino]-5-heptyl-thiophene-3-carboxylate], for which the MIC in assay [1], in assay [2] and in assay [3] was greater than 8 µg/mL in each case.
Regarding `OC(Cn1cncn1)(Cn1cncn1)c1ccc(F)cc1F` [Fluconazole], the MIC is 1 µg/mL (≈ 3.27 µM) in assay [1], 128 µg/mL (≈ 418 µM) in assay [2] and greater than 128 µg/mL in assay [3].
The like results for `CCc1cc(C#N)c(NCC(O)(Cn2cncn2)c2ccc(F)cc2F)s1` (stereo not drawn) [Compound 1l, 2-[2-(2,4-Difluorophenyl)-2-hydroxy-3-[1,2,4]triazol-1-yl-propylamino]-5-ethyl-thiophene-3-carbonitrile] were, in that order, 0.25 µg/mL (≈ 0.642 µM), greater than 16 µg/mL and greater than 16 µg/mL.
The like results for `CCCc1cc(C#N)c(NCC(O)(Cn2cncn2)c2ccc(F)cc2F)s1` (stereo not drawn) [Compound 1m, 2-[2-(2,4-Difluorophenyl)-2-hydroxy-3-[1,2,4]triazol-1-yl-propylamino]-5-propyl-thiophene-3-carbonitrile] were, in that order, 0.12 µg/mL (≈ 0.297 µM), greater than 32 µg/mL and greater than 32 µg/mL.
The like results for `N#Cc1c(NCC(O)(Cn2cncn2)c2ccc(F)cc2F)sc2c1CCC2` (stereo not drawn) [Compound 1o, 2-[2-(2,4-Difluorophenyl)-2-hydroxy-3-[1,2,4]triazol-1-yl-propylamino]-5,6-dihydro-4H-cyclopenta[b]thiophene-3-carbonitrile] were, in that order, 0.5 µg/mL (≈ 1.25 µM), greater than 16 µg/mL and greater than 16 µg/mL.
Take `CCOC(=O)c1cc(CC)sc1NCC(O)(Cn1cncn1)c1ccc(F)cc1F` (stereo not drawn) [Compound 1b, Ethyl 2-[2-(2,4-difluorophenyl)-2-hydroxy-3-[1,2,4]triazol-1-yl-propylamino]-5-ethyl-thiophene-3-carboxylate]: the MIC was 2 µg/mL (≈ 4.58 µM) in assay [1], greater than 4 µg/mL in assay [2] and greater than 4 µg/mL in assay [3].
As to `CCOC(=O)c1cc(C)sc1NCC(O)(Cn1cncn1)c1ccc(F)cc1F` (stereo not drawn) [Compound 1a, Ethyl 2-[2-(2,4-difluorophenyl)-2-hydroxy-3-[1,2,4]triazol-1-yl-propylamino]-5-methyl-thiophene-3-carboxylate], the MIC was 2 µg/mL (≈ 4.73 µM) in assay [1], greater than 16 µg/mL in assay [2] and greater than 16 µg/mL in assay [3].
Take `CCOC(=O)c1c(NCC(O)(Cn2cncn2)c2ccc(F)cc2F)sc2c1CCCC2` (stereo not drawn) [Compound 1h, Ethyl 2-[2-(2,4-difluorophenyl)-2-hydroxy-3-[1,2,4]triazol-1-yl-propylamino]-4,5,6,7-tetrahydro-benzo[b]thiophene-3-carboxylate]: the results for the MIC in assay [1], in assay [2] and in assay [3] were 4 µg/mL (≈ 8.65 µM), greater than 4 µg/mL and greater than 4 µg/mL, respectively.
Take `CCOC(=O)c1c(NCC(O)(Cn2cncn2)c2ccc(F)cc2F)sc2c1CCC2` (stereo not drawn) [Compound 1g, Ethyl 2-[2-(2,4-difluorophenyl)-2-hydroxy-3-[1,2,4]triazol-1-yl-propylamino]-5,6-dihydro-4H-cyclopenta[b]thiophene-3-carboxylate]: the MIC in assay [1] was 2 µg/mL (≈ 4.46 µM); in assay [2], greater than 8 µg/mL; in assay [3], greater than 8 µg/mL.
As for `CCCCCc1cc(C#N)c(NCC(O)(Cn2cncn2)c2ccc(F)cc2F)s1` (stereo not drawn) [Compound 1n, 2-[2-(2,4-Difluorophenyl)-2-hydroxy-3-[1,2,4]triazol-1-yl-propylamino]-5-pentyl-thiophene-3-carbonitrile], the MIC in assay [1] is 0.25 µg/mL (≈ 0.579 µM); in assay [2] it was greater than 4 µg/mL; in assay [3], greater than 4 µg/mL.
Regarding `CCOC(=O)c1cc(CCCOCc2ccccc2)sc1NCC(O)(Cn1cncn1)c1ccc(F)cc1F` (stereo not drawn) [Compound 1f, Ethyl 5-(3-benzyloxypropyl)-2-[2-(2,4-difluorophenyl)-2-hydroxy-3-[1,2,4]triazol-1-yl-propylamino]-thiophene-3-carboxylate], the MIC in assay [1], in assay [2] and in assay [3] was greater than 4 µg/mL throughout.
Turning to `C[C@@H]1[C@H](O)[C@@H](C)/C=C/C=C/C=C/C=C/C=C/C=C/C=C/[C@H](O[C@@H]2O[C@H](C)[C@@H](O)[C@H](N)[C@@H]2O)C[C@@H]2O[C@](O)(C[C@@H](O)C[C@@H](O)[C@H](O)CC[C@@H](O)C[C@@H](O)CC(=O)O[C@H]1C)C[C@H](O)[C@H]2C(=O)O` [Amphotericin B, reference compound], in assay [1], the “MIC C. albicans ATCC 24433” value worked out at 0.25 µg/mL (≈ 0.271 µM). For the same molecule, the “MIC A. niger ATCC 16404” value in assay [2] was found to be 1 µg/mL (≈ 1.08 µM). In addition, the “MIC F. proliferatum ATCC 10052” value in assay [3] amounted to 2 µg/mL (≈ 2.16 µM).
For `Cc1cc(C#N)c(NCC(O)(Cn2cncn2)c2ccc(F)cc2F)s1` (stereo not drawn) [Compound 1k, 2-[2-(2,4-Difluorophenyl)-2-hydroxy-3-[1,2,4]triazol-1-yl-propylamino]-5-methyl-thiophene-3-carbonitrile], the MIC in assay [1] was 0.5 µg/mL (≈ 1.33 µM); in assay [2] it was greater than 32 µg/mL; in assay [3], greater than 32 µg/mL.
